Structures can show the parent of a compound that is named as a salt.
What was measured:
[1] = Stereotypy test with amphetamine; type: in vivo, rat (male, Wistar AF); details: 32 or 64 mg/kg orally 60 minutes before amphetamine 2 mg/kg IP
Description: (§1) All the experiments described below were carried out on male rats weighing between 170 and 220 g (Wistar AF strain) and male mice weighing between 18 and 23 g (Swiss NMRI strain), unless indicated to the contrary. All the experiments were conducted in a constant-temperature laboratory (22±1° C.). […] Unless indicated to the contrary 10 animals per batch were always used.

[2] = Antioxotremorine activity test; type: in vivo, mouse (male, Swiss NMRI); details: 8, 16, 32 mg/kg orally or ip; oxotremorine 0.5 mg/kg IP
Description: as §1
In mice which received doses of 8, 16, and 32 mg/kg of NaAHDH orally or intraperitoneally the effects of oxotremorine (0.5 mg/kg IP) were unchanged, in terms of hyperthermia, trembling, lacrimation, hypersalivation, and defecation.

[3] = Modification of hypnotic effects (pentobarbital), mouse; type: in vivo, mouse (male, Swiss NMRI); details: 16, 32, 64 mg/kg orally, with or 60 minutes before pentobarbital
Description: as §1

[4] = Interaction with convulsants: cardiazol; type: in vivo; details: 64 mg/kg orally 30 minutes before cardiazol 160 mg/kg SC
Description: as §1

[5] = Conditioned-inhibition test (four-plate test); type: in vivo, mouse (male, Swiss NMRI); details: 4, 8, 16, 32 and 64 mg/kg
Description: as §1
A simple conditioned-inhibition test was used, namely the four-plate test (Neuropharmacology, Aron et al, 1971, 10, 459-470).

[6] = Potentialization of apomorphine; type: in vivo; details: compared with caffeine; no method described

CC(O)CC(c1ccccc1)C(C(=O)O)c1ccccc1 (stereo not shown) [NaAHDH, Sodium Salt of 5-Hydroxy-2,3-Diphenyl-Hexanoic Acid]
modification of amphetamine stereotyped movements [1]: no modification in stereotyped movements
effects of oxotremorine (hyperthermia, trembling, lacrimation, hypersalivation, defecation) [2]: unchanged
time taken to fall asleep or length of sleep [3]: no modification to the time taken to fall asleep or the length of sleep
latency of convulsions [4]: no decrease in the latency of convulsions
animals' performance in four-plate test [5]: slight in increase in the animals' performance
modification of conditioned inhibition [5]: no modification of conditioned inhibition
potentialization of apomorphine [6]: does not potentialize apomorphine

From patent US4163799A, “Psychostimulant compounds” (Union Chimique Continentale U.C.C., priority 1975, dated 1979)
